# Entries after “also recorded” stand apart in the source; their conditions may differ.
# Key:
# [1] = system: fibrocystic disease of breast; assay: Treatment of fibrocystic disease of breast in a patient; assay type: in vivo, human
# Description: (§1) The reduced form of TEMPOL (TEMPOL-H) or equivalent pharmacologically-active spin label/spintrap is prepared by mixing together 2 grams of TEMPOL or a pharmacologically effective amount of another spin-label or spin trap such as methynitrosopropane, 20 grams of ascorbic acid or other reducing compound in 100 ml of distilled water. The formulation is used as is. The solution is slightly-bitter. The formulation can be administered diluted in a suitable liquid such as juice, tea, or coffee. An equivalent dry form as 10 mg of tempol mixed with 100 mg of acsorbic acid or equivalent reducing substance can be easily prepared in capsule or tablet form.
# (§2) One-half ml of the above solution, comprising 10 mg TEMPOL plus 100 mg ascorbic acid, was administered orally once a day to a 50 kg person with a long history for fibrocystic disease of breast so severe that surgeons had recommended mastectomy. The same person had also been previously-diagnoses with severe trigeminal neuralgia.
# (§3) Long-term relief can be achieved, but the symptoms eventually reappear on cessation of treatment for a few weeks.
# trigeminal neuralgia = assay: Treatment of trigeminal neuralgia in a patient; assay type: in vivo, human; details: for trigeminal neuralgia (summary statement): humans, route and dose not stated
# Description: as §1, §2, §3
# [2] = system: premenstrual dysphoric disorder; assay: Treatment of premenstrual dysphoric disorder; assay type: in vivo, human; details: for premenstrual dysphoric syndrome and its associated comorbid symptoms (summary statement): humans, route and dose not stated
# Description: as §1, §2
# migraine headache = assay: Treatment of migraine headache; assay type: in vivo, human; details: for migraine headache (summary statement): humans, route and dose not stated
# Description: as §1, §2
# post-herpetic neuropathy = assay: Treatment of post-herpetic neuropathy / neuralgia; assay type: in vivo, human; details: for post-herpetic neuralgia (summary statement): humans, route and dose not stated
# Description: as §1
# One-half ml of the above solution was orally-administered daily to a middle-aged person with chronic post-herpetic neuropathy of the feet, peridontitis, and gingivitis.
# [3] = system: gingivitis and peridontitis; assay: Treatment of gingivitis and peridontitis; assay type: in vivo, human; details: for peridontitis and gingivitis (summary statement): humans, route and dose not stated
# herpes zoster lesions = assay: Treatment of herpes zoster lesions; assay type: in vivo, human; details: for herpes zoster lesions (summary statement): humans, route and dose not stated
# influenza = assay: Amelioration of influenza symptomology; assay type: in vivo, human; details: for influenza (summary statement): humans, route and dose not stated
# rectal hemorrhoids = assay: Treatment of rectal hemorrhoids; assay type: in vivo, human; details: for rectal hemorrhoids (summary statement): humans, route and dose not stated
# Description: Boil until methycellulose dissolves (5-10 minutes)
# Alternative is I million-dalton MW 1% propylcellulose, which dissolves overnight without boiling.
# Add 5 grams TEMPOL with stirring
# cyclic vomiting syndrome = assay: Treatment of cyclic vomiting syndrome; assay type: in vivo, human; details: the above treatment (10 mg TEMPOL plus 100 mg ascorbic acid orally once a day)
# [4] = system: peripheral vascular disease; assay: Treatment of peripheral vascular disease; assay type: in vivo, human; details: the above treatment (10 mg TEMPOL plus 100 mg ascorbic acid orally once a day)
# rhinositis = assay: Local nasal treatment of rhinositis; assay type: in vivo, human; details: 0.1 ml applied locally to the nasal cavity
# animal models = details: cited from earlier work
# humans = details: human clinical trials, even at several grams per day doses; cited from earlier work
# [5] = 10 mg TEMPOL plus 100 mg ascorbic acid orally once a day, same patient
# [6] = one-half ml of solution orally daily, middle-aged male
# [7] = topical application once a day to the affected area
structure (smiles),measurement,setting,value
"CC1(C)CC(O)CC(C)(C)N1[O] [TEMPOL, 4-hydroxy-2,2,6,6-tetramethylpiperidin-1-yloxy]",efficacy of Tempol itself (unreduced),[1]; same doses as the reduced formulation,effective at the same doses
same,trigeminal neuralgia (summary statement),trigeminal neuralgia,ameliorate
same,premenstrual dysphoric syndrome and its associated comorbid symptoms (summary statement),[2],ameliorate
same,migraine headache (summary statement),migraine headache,prevent and treat
same,post-herpetic neuralgia (summary statement),post-herpetic neuropathy,prevent and treat
same,"gingivitis and peridontitis, local intraoral treatment",[3]; 0.5 ml of 5% TEMPOL liquid or gel applied to the affected gums for one to three days,reducing tenderness and bleeding
same,peridontitis and gingivitis (summary statement),[3],ameliorate
same,herpes zoster lesions (summary statement),herpes zoster lesions,prevent and treat
same,influenza (summary statement),influenza,ameliorate
same,symptoms of rectal hemorrhoids,rectal hemorrhoids; 0.2 ml of 5% solution (methyl cellulose gel) transrectally for one to three days,"ameliorates the symptoms of rectal hemorrhoids, especially pain, swelling, and bleeding"
same,rectal hemorrhoids (summary statement),rectal hemorrhoids,ameliorate
CC1(C)CC(O)CC(C)(C)N1O [TEMPOL-H],time until first results appeared,"[1]; 10 mg TEMPOL plus 100 mg ascorbic acid orally once a day, one patient",1-2 weeks
same,regression / shrinkage of the breast cysts,"[1]; 10 mg TEMPOL plus 100 mg ascorbic acid orally once a day, one patient, mammographic imaging and digital palpation",almost complete regression; also recorded: shrinkage of the breast cysts
same,breast cysts upon resumption of treatment,"[1]; resumption after cessation of treatment for a few weeks, same oral dose",again drastically shrink
same,effect on long-standing trigeminal neuralgia,trigeminal neuralgia; [5],alleviated and prevented
same,trigeminal neuralgia (summary statement),trigeminal neuralgia,ameliorate
same,symptoms of anxiety/depression and mood swings outside the premenstrual time period,[2]; [5],Efficacy was observed
same,symptoms of premenstrual dysphoric disorder including comorbidity,[2]; [5],alleviates and prevents
same,premenstrual dysphoric syndrome and its associated comorbid symptoms (summary statement),[2],ameliorate
same,migraine headache (summary statement),migraine headache,prevent and treat
same,migraine headache prevention and symptoms,migraine headache; the above treatment (10 mg TEMPOL plus 100 mg ascorbic acid orally once a day),both prevents migraine headache and ameliorates the symptoms
same,cyclic vomiting syndrome,cyclic vomiting syndrome,"prevents, controls, and ameliorates"
same,peripheral vascular disease,[4],"controls, and ameliorates"
same,post-herpetic neuralgia (summary statement),post-herpetic neuropathy,prevent and treat
same,symptomatic relief of chronic post-herpetic neuropathy of the feet,post-herpetic neuropathy; [6],Symptomatic relief of all of these was experienced within one week
same,"post-herpetic neuralgia, topical application",post-herpetic neuropathy; [7],also effective
same,peridontitis and gingivitis (summary statement),[3],ameliorate
same,symptomatic relief of peridontitis and gingivitis,[3]; [6],Symptomatic relief of all of these was experienced within one week
same,"gingivitis and peridontitis, topical application",[3]; topical application of the reduced TEMPOL solution,also effective
same,herpes zoster lesions (summary statement),herpes zoster lesions,prevent and treat
same,"herpes zoster lesions, topical application",herpes zoster lesions; [7],also effective
same,influenza (summary statement),influenza,ameliorate
same,symptoms of influenza,influenza; one-half ml orally once or twice daily,significantly-ameliorates
same,rhinositis,rhinositis,ameliorates rhinositis
same,rectal hemorrhoids (summary statement),rectal hemorrhoids,ameliorate
"CC(C)(C)[N+]([O-])=Cc1ccc(S(=O)(=O)[O-])cc1S(=O)(=O)[O-].[Na+].[Na+] [NXY-059, disulfonyl PBN]",neuroprotective efficacy in animal models,animal models,effective in animal models
same,neuroprotective efficacy in humans,humans,not in humans; also recorded: perpetual failure
